Results on 5 compounds are retold here after patent US20040034206A1, “Combination therapy for RNA virus infections involving ribavirin and IMPDH inhibitors” (priority 2002, published 2004).

Like-named read-outs stand apart in the source and are kept apart here.

Data set [1] deals with HCV subgenomic replicon (clone 16) in Huh-7 cells. In kind it is cell-based, Hepatitis C Virus. From the text:
We examined the mutagenic effect of ribavirin and other IMPDH inhibitors on HCV using the recently developed HCV replicon system. See German Patent No. DE19915178A1 to Bartenschlager, the disclosure of which is hereby incorporated by reference in its entirety. In the replicon system, an autonomously replicating clone of HCV comprising HCV 5′-NTR (NTR non translated region), NS3, NS4A, NS4B, NS5A, NS5B and a neomycin selectable marker gene that is linked to the HCV genes is inserted into human hepatoma cell line known as Huh-7 cells. The HCV-RNAs produced by the autonomously replicating clone of HCV in the Huh-7 cells are extracted and retransfected into naïve Huh-7 cells to evaluate the replication competence and efficiency of the HCV-RNA. Therefore, the effect of anti-viral treatments on the HCV-RNAs produced may be evaluated by growing the replicon cells in the presence or absence of such anti-viral treatments, then extracting the replicon RNA from treated cells and transfecting it into naive Huh 7 cells and measuring colony formation. The effect of the combination of ribavirin, and IMPDH inhibitors on HCV replication in vitro was evaluated using the replicon system as described below.
HCV Cell Culture System. Human hepatoma cell line Huh-7 cells were grown in Dulbecco's modified minimal essential medium (DMEM, Cellgro) supplemented with 10% fetal bovine serum, 4 mM L-glutamine, non-essential amino acids, 10 mM HEPES, 0.075% sodium bicarbonate, 100 U/ml penicillin and 100 ug/ml streptomycin, and 1 mM sodium pyruvate. HCV subgenomic replicon (clone 16, containing NS5A S1I791 adaptive mutation as described in Blight et al., Science 290:1972 (2000)) was constructed by Schering-Plough Research Institute as described by R. Bartenschlager. See Lohmann, et al., Science 285:5424 (2000). The replicon-bearing Huh-7 cells were maintained in the same media as described above with 0.5 mg/ml G418 (Geneticin, Gibco-BRL).
HCV RNA Replicon Copy Number measurement by Taqman assays. Replicon cells were seeded at 3000 cells per well in 96-well Bio-coated plates (Becton Dickinson) and allowed to adhere overnight. The next day the culture medium was replaced with 5% serum medium containing the experimental compound. After 72 hours the plate was harvested by aspirating medium, washing with PBS twice, and putting in […] cell lysis buffer (Ambion, catalog No. 8722). The plate was then heated at 75° C. for 5 min followed by freezing at −70° C. for 10 min. The cell lysate was then measured for HCV replicon copy number by one-step real-time RT-PCR (Taqman assay) using an ABI 7700 instrument. The primers, which correspond to HCV NS5B, are: forward, 5′-[…]-3′ (SEQ ID NO: 1), and reverse, 5′-[…]-3′ (SEQ ID NO: 2). The double fluorescence-labeled probe (5′-[…]-3′) (SEQ ID NO: 3) was purchased from Applied Biosystems (part No. P6448-6464). The cellular GAPDH (glyceraldehyde 3-phosphate dehydrogenase) mRNA from the same cell lysate was used as an internal control for cell number and metabolic status (primers/probes purchased from Perkin Elmer, part No. 4310859). Every experiment was performed in triplicate. The entire study was conducted independently two times.
Specific Colony Formation Efficiency (SCFE) determination. Replicon cells were loaded with compound(s) for 10 days under complete DMEM (without G418), with medium changes every 2-3 days. The total cytoplasmic RNA was extracted using RNA Easy kit from Qiagen (catalog No. 74104) and the RNA concentration was determined by absorbance at 260 nm. HCV replicon copy number in each RNA sample was determined by Taqman assay using a standard curve. For electroporation of RNA obtained from compound-treated replicon cells, 8 μg of total RNA suspended in 50 μl PBS was mixed with 50 μl suspension of 2×10^6 Huh-7 cells in a 0.1 cm cuvette (Bio-Rad, catalog No. 165-2089). As a control, wild type replicon RNA was serially diluted with total RNA from naïve Huh-7 cells.

Data set [2] addresses inosine monophosphate dehydrogenase (IMPDH). The settings on record: cited from J. Jain et al.; cited from earlier work.
For data set [3] the following is noted: human, in vivo; cited from earlier work.
A further data set concerns Hepatitis C Virus. Conditions: IFN-α monotherapy, chronic HCV infection, depending on genotype; cited from earlier work.

In the case of `Nc1nc2c(ncn2[C@@H]2O[C@H](CO)[C@@H](O)[C@H]2O)c(=O)[nH]1` [Guan., guanosine], in data set [1] (10 μM Guan.), the “No. of Colonies” value is 210, the “Replicon Copy No.” value is on record as 12 copies X 10^7/8 μg total RNA and the “SCFE (Specific Colony Formation Efficiency)” value (from here on “SCFE”) is 180 colonies/10^8 HCV RNA genomes.

A word on the Ki: it is a measure of affinity in units of concentration, obtained from inhibition or displacement. As for `COc1cc(NC(=O)Nc2cccc(CNC(=O)O[C@H]3CCOC3)c2)ccc1-c1cnco1` [IMPDH-I, (S)-N-3-[3-(3-methoxy-4-oxazol-5-yl-phenyl)ureido]-benzylcarbamic acid tetrahydrofuran-3-yl-ester], in data set [1] (100 nM IMPDH-I), the “No. of Colonies” value worked out at 370, the “Replicon Copy No.” value is recorded as 10 copies X 10^7/8 μg total RNA and the “SCFE” value was 360 colonies/10^8 HCV RNA genomes. Further, in data set [1] (100 nM IMPDH-I alone, Example 5), the “effect on the replicon” value is “only a marginal effect”. For the same compound, in data set [2], the inhibition constant (Ki) is around 10 nM.

Consider `COc1c(C)c2c(c(O)c1C/C=C(\C)CCC(=O)O)C(=O)OC2` [MPA, mycophenolic acid], for which, in data set [1] (2 μM MPA), the “No. of Colonies” value is 470, the “Replicon Copy No.” value is listed as 9 copies X 10^7/8 μg total RNA and the “SCFE” value was 510 colonies/10^8 HCV RNA genomes.

For the compound `NC(=O)c1ncn([C@@H]2O[C@H](CO)[C@@H](O)[C@H]2O)n1` [ribavirin, 1-beta-D-Ribofuranosyl-1H-1,2,4-triazole-3-carboxamide], in data set [1] (10 μM ribavirin), the “No. of Colonies” value was determined as 650, the “Replicon Copy No.” value was 14 copies X 10^7/8 μg total RNA and the “SCFE” value was 480 colonies/10^8 HCV RNA genomes. In data set [1] (50 μM ribavirin), the “No. of Colonies” value stood at 420, the “Replicon Copy No.” value is 12 copies X 10^7/8 μg total RNA and the “SCFE” value is 360 colonies/10^8 HCV RNA genomes. In data set [1] (100 μM ribavirin), the “No. of Colonies” value was found to be 110, the “Replicon Copy No.” value is 6 copies X 10^7/8 μg total RNA and the “SCFE” value was 200 colonies/10^8 HCV RNA genomes. Further, the “reduction in the fitness of the replicon (specific colony formation efficiency)” value in data set [1] (100 μM ribavirin alone) is around 4 fold. In data set [3], the “patients with reduction in hemoglobin of greater than 4 g/dl” value was 15.7%.

As for interferon-alpha, in the data set on Hepatitis C Virus, the response rate result is reported as “about 25%”.
